Assay results from patent US9862708B2, “Pyrazolone compounds and uses thereof” (Tempest Therapeutics, Inc., priority 2014, dated 2018).
Like-named read-outs stand apart in the source and are kept apart here.

Assays:
Assay type in all cases: cell-based
PPAR gamma = target: T1, PPAR gamma (Homo sapiens, UniProt P37231); experiment: PPAR γ reporter counterscreen (Indigo Biosciences kit); details: receptor agonist at ~EC80 for antagonist potency
T1 construct: host or cells: engineered reporter cells of the kit (analogous to the PPARα kit: non-human mammalian)
T1 sequence (P37231 1-505): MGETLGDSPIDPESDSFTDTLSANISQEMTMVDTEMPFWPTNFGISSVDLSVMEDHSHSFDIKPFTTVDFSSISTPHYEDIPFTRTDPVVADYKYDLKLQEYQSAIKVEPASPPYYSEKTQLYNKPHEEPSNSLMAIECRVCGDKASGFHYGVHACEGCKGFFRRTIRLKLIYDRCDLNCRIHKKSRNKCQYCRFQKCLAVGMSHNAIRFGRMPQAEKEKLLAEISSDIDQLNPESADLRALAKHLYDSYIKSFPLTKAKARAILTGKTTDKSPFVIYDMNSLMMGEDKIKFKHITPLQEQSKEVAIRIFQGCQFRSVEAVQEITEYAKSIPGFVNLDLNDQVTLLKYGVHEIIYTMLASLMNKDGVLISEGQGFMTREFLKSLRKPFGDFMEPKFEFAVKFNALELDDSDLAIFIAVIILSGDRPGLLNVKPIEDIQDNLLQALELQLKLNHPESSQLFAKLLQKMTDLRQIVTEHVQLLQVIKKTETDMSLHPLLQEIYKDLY
Experimental: (§1) To determine species selectivity, a Mouse PPARα Reporter Assay System was used (Indigo Biosciences, Cat. #M00111). Activity of test compounds to antagonize or agonize other isoforms of human PPAR, for example β/δ and γ, were assessed using the corresponding kits from Indigo Biosciences (Cat. #IB00121 and #IB00101, respectively). In addition to PPAR activity, compounds were also screened for activity against other nuclear hormone receptors including Estrogen Receptor β, Glucocorticoid Receptor and Thyroid Receptor β using commercially available kits (Indigo Biosciences, Cat. #IB00411, IB00201 and IB01101, respectively). Each assay system from Indigo Biosciences uses technology analogous to the human
(§2) PPARα kit, with the variance being that the cells used for each assay were engineered to over-express the receptor of interest. In addition, the appropriate receptor agonist (included with each kit) was used at ˜EC80 for assays in which antagonist potency was being assessed.

human PPARα = target: T2, human PPARα (Homo sapiens, UniProt Q07869); experiment: Human PPARα Reporter Assay (luciferase, Indigo Biosciences)
T2 construct: host or cells: proprietary non-human mammalian cells
T2 sequence (Q07869 1-468): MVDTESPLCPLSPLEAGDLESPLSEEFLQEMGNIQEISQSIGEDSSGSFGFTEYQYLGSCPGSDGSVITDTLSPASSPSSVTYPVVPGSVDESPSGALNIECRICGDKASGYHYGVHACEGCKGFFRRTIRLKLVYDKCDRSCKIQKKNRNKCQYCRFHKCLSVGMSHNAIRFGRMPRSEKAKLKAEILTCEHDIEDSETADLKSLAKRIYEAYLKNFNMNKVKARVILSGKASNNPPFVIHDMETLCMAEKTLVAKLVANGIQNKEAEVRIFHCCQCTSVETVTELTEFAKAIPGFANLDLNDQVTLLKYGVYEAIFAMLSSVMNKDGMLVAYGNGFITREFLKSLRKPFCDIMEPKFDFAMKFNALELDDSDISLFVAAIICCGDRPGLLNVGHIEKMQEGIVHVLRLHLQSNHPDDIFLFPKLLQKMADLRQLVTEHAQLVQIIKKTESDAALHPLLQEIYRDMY
Experimental: Human PPARα Reporter Assay
The screening of test compounds for agonist or antagonist activities against human PPARα receptors was performed using a commercial kit, Human PPARα Reporter Assay System (Indigo Biosciences, Cat. #IB00111).
This nuclear receptor assay system utilizes proprietary non-human mammalian cells engineered to provide constitutive, high-level expression of Human PPARα. Because these cells incorporate a PPARα-responsive luciferase reporter gene, quantifying expressed luciferase activity provides a sensitive surrogate measure of PPARα activity in the treated cells. The primary application of this reporter assay system is in the screening of test samples to quantify any functional activity, either agonist or antagonist, that they may exert against human PPARα.
Briefly, reporter cells are dispensed into wells of the assay plate and then immediately dosed with test compounds. Following an overnight incubation, the treatment media is discarded and Luciferase Detection Reagent (LDR) is added. The intensity of light emission from the ensuing luciferase reaction provides a sensitive measure that is directly proportional to the relative level of PPARα activation in the reporter cells.

Glucocorticoid Receptor = target: T3, Glucocorticoid Receptor (Homo sapiens, UniProt P04150); experiment: Glucocorticoid Receptor reporter counterscreen (Indigo Biosciences kit); details: receptor agonist at ~EC80 for antagonist potency
T3 construct: host or cells: engineered reporter cells of the kit
T3 sequence (P04150 1-777): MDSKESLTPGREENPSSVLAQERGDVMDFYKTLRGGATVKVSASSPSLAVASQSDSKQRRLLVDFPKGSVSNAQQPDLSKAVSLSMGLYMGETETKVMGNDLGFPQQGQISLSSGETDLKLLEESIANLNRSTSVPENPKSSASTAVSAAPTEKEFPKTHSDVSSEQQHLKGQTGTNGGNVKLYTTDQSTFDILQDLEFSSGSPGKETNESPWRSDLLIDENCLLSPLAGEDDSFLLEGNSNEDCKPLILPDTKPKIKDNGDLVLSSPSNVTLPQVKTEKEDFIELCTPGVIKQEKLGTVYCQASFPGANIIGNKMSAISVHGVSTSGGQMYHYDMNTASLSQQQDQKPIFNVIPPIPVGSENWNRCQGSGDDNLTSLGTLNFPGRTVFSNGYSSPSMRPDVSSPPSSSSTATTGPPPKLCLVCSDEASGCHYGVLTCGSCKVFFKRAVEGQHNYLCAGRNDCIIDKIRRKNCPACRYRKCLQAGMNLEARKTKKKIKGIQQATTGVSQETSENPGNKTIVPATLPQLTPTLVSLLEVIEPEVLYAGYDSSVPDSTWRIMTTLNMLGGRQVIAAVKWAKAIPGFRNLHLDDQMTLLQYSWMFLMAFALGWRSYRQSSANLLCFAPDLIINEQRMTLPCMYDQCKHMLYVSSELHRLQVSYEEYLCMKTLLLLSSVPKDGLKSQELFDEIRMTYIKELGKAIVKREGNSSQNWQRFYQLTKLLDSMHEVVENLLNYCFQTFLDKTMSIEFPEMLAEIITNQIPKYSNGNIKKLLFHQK
Experimental: as §1, §2

Estrogen Receptor β = target: T4, Estrogen Receptor β (Homo sapiens, UniProt Q92731); experiment: Estrogen Receptor β reporter counterscreen (Indigo Biosciences kit); details: receptor agonist at ~EC80 for antagonist potency
T4 construct: host or cells: engineered reporter cells of the kit
Experimental: as §1, §2

PPAR beta/delta = target: T5, PPAR beta/delta (Homo sapiens, UniProt Q03181); experiment: PPAR β/δ reporter counterscreen (Indigo Biosciences kit); details: receptor agonist at ~EC80 for antagonist potency
T5 construct: host or cells: engineered reporter cells of the kit (analogous to the PPARα kit: non-human mammalian)
T5 sequence (Q03181 1-441): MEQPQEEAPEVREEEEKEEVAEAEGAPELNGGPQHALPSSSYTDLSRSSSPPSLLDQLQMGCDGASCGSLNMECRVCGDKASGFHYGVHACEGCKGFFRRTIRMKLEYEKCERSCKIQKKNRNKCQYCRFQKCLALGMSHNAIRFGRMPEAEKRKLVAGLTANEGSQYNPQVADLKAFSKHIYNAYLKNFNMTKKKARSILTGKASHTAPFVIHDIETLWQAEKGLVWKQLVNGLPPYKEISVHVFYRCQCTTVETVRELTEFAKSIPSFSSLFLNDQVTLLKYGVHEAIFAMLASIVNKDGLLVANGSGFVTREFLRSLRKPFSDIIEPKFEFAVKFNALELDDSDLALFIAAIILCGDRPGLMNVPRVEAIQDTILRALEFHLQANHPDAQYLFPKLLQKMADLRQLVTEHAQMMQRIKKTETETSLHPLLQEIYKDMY
Experimental: as §1, §2

Thyroid Receptor β = target: T6, Thyroid Receptor β (Homo sapiens, UniProt P10828); experiment: Thyroid Receptor β reporter counterscreen (Indigo Biosciences kit); details: receptor agonist at ~EC80 for antagonist potency
T6 construct: host or cells: engineered reporter cells of the kit
T6 sequence (P10828 1-461): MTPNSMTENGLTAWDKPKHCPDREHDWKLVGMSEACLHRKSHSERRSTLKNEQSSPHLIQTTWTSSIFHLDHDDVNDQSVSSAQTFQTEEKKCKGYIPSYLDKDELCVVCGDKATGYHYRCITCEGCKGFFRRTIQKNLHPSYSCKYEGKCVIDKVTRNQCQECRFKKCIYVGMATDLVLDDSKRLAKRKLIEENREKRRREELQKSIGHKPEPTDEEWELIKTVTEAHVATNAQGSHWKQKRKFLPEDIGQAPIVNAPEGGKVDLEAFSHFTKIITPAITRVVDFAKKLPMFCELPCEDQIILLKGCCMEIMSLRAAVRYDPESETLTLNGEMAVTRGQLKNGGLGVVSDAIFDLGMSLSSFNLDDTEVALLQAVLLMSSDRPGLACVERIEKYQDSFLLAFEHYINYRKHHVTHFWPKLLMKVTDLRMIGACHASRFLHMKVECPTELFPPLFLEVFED
Experimental: as §1, §2

[1] = antagonism, luciferase reporter cells, overnight incubation, read-out: PPARα IC50

T4 sequence (Q92731 whole entry): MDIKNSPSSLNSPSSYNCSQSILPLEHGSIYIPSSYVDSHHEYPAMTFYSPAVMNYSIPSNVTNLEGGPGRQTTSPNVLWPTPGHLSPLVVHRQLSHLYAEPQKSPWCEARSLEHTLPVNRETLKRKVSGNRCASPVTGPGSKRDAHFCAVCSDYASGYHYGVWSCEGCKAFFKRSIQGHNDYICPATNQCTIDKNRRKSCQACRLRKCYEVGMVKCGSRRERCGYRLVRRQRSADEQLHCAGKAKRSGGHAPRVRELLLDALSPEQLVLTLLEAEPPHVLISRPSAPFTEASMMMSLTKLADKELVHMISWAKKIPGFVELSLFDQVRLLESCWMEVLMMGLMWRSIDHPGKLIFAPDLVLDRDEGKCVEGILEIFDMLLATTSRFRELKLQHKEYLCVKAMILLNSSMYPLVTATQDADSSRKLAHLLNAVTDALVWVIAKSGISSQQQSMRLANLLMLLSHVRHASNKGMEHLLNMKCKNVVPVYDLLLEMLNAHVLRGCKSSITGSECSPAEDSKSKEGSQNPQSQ

| SMILES | IC50 (human PPARα; [1]) [nM] | also measured |
| --- | --- | --- |
| CC1(C)C(=O)N(c2ccc(C(F)(F)F)cc2)N=C1CCCc1ccc(OC2(C(=O)O)CCC2)cc1 [Example 50, 1-(4-(3-(4,4-dimethyl-5-oxo-1-(4-(trifluoromethyl)phenyl)-4,5-dihydro-1H-pyrazol-3-yl)propyl)phenoxy)cyclobutanecarboxylic acid] | 2.4 | IC50 (PPAR gamma): 56000 nM; IC50 (human PPARα; Target Selectivity - Counterscreen table, read-out: PPAR alpha IC50): 2.4 nM; IC50 (Glucocorticoid Receptor): 36000 nM; IC50 (Estrogen Receptor β): 36000 nM; IC50 (PPAR beta/delta): 22000 nM; IC50 (Thyroid Receptor β): 61000 nM |
| CC(C)(CNS(=O)(=O)c1ccccc1)Oc1ccc(CCCC2=NN(c3ccc(C(F)(F)F)cc3)C(=O)C23CCCC3)cc1 [Example 46, N-(2-methyl-2-(4-(3-(4-oxo-3-(4-(trifluoromethyl)phenyl)-2,3-diazaspiro[4,4]non-1-en-1-yl)propyl)phenoxy)propyl)benzenesulfonamide] | 1300 |  |
| COc1ccc(-c2ccc(CCCC3=NN(Cc4ccc(C(C)(C)C)cc4)C(=O)C3(C)C)cc2)nc1NS(=O)(=O)c1ccccc1 [Example 59, N-(6-(4-(3-(1-(4-(tert-butyl)benzyl)-4,4-dimethyl-5-oxo-4,5-dihydro-1H-pyrazol-3-yl)propyl)phenyl)-3-methoxypyridin-2-yl)benzenesulfonamide] | 10 |  |
| CC(C)(Oc1ccc(CCCC2=NN(c3ccc(C(F)(F)F)cc3)C(=O)C23CCCC3)cc1)C(=O)NS(=O)(=O)c1ccccc1 [Example 25, 2-methyl-2-(4-(3-(4-oxo-3-(4-(trifluoromethyl)phenyl)-2,3-diazaspiro[4,4]non-1-en-1-yl)propyl)phenoxy)-N-(phenylsulfonyl)propanamide] | 1 |  |
| CC(C)(Oc1ccc(CCCC2=NN(Cc3ccc(C4=CCCCC4)cc3)C(=O)C2(C)C)cc1)C(=O)O [Example 15, 2-(4-(3-(4,4-dimethyl-5-oxo-1-((2′,3′,4′,5′-tetrahydro-[1,1′-biphenyl]-4-yl)methyl)-4,5-dihydro-1H-pyrazol-3-yl)propyl)phenoxy)-2-methylpropanoic acid] | 130 |  |
| CC(C)(Oc1ccc(CCCC2=NN(Cc3ccc(C(F)(F)F)c(F)c3)C(=O)C2(C)C)cc1)C(=O)O [Example 18, 2-(4-(3-(1-(3-fluoro-4-(trifluoromethyl)benzyl)-4,4-dimethyl-5-oxo-4,5-dihydro-1H-pyrazol-3-yl)propyl)phenoxy)-2-methylpropanoic acid] | 120 |  |
| CC(C)(Oc1ccc(CCCC2=NN(c3ccc(OC(F)(F)F)cc3)C(=O)C23CCCC3)cc1)C(=O)NC1CC1 [Example 29, N-cyclopropyl-2-methyl-2-(4-(3-(4-oxo-3-(4-(trifluoromethoxy)phenyl)-2,3-diazaspiro[4,4]non-1-en-1-yl)propyl)phenoxy)propanamide] | 69 |  |

Continued, in another order:

| IC50 (human PPARα; [1]) [nM] | SMILES | also measured |
| --- | --- | --- |
| 34000 | CCCC1(CCC)C(=O)N(c2cccc(C(F)(F)F)c2)N=C1CCCc1ccc(OC(C)(C)C(=O)O)cc1 [Example 42, 2-methyl-2-(4-(3-(5-oxo-4,4-dipropyl-1-(3-(trifluoromethyl)phenyl)-4,5-dihydro-1H-pyrazol-3-yl)propyl)phenoxy)propanoic acid] |  |
| 840 | CC(C)(CN)Oc1ccc(CCCC2=NN(c3ccc(C(F)(F)F)cc3)C(=O)C23CCCC3)cc1 [Example 45, 4-(3-(4-((1-amino-2-methylpropan-2-yl)oxy)phenyl)propyl)-2-(4-(trifluoromethyl)phenyl)-2,3-diazaspiro[4,4]non-3-en-1-one] |  |
| 32 | CC(C)(Oc1ccc(CCCC2=NN(c3cccc(C(F)(F)F)c3)C(=O)C23CCCC3)cc1)C(=O)O [Example 35, 2-methyl-2-(4-(3-(4-oxo-3-(3-(trifluoromethyl)phenyl)-2,3-diazaspiro[4,4]non-1-en-1-yl)propyl)phenoxy)propanoic acid] |  |
| 19 | CC(C)(Oc1ccc(CCCC2=NN(c3cccc(C(F)(F)F)c3)C(=O)C2(C)C)cc1)C(=O)O [Example 20, 2-(4-(3-(4,4-dimethyl-5-oxo-1-(3-(trifluoromethyl)phenyl)-4,5-dihydro-1H-pyrazol-3-yl)propyl)phenoxy)-2-methylpropanoic acid] |  |
